# Experimental data published in article PMC9389804 (Journal of Hematology & Oncology, 2022).
# Values joined by “and” are separate entries in the source; they are usually repeats but may differ in a detail not shown here. Equal values may be shown once.
# Experiment: safety assessments (adverse events, NCI CTCAE)
# Conditions: for Treatment-related cardiovascular events: G 3/4
# [1] = AE resulting in dose interruption, Total n=165
# [2] = AE resulting in dose reduction, Accelerated phase n=38
# [3] = AE resulting in dose reduction, Chronic phase n=127
# [4] = AE resulting in dose reduction, Total n=165
# [5] = AE resulting in treatment discontinuation, Accelerated phase n=38
# [6] = AE resulting in treatment discontinuation, Chronic phase n=127
# [7] = AE resulting in treatment discontinuation, Total n=165
# [8] = CVE possibly related to olverembatinib, all 165 patients
# [9] = CVEs possibly related to olverembatinib
smiles,measurement,setting,value
Cc1ccc(C(=O)Nc2ccc(CN3CCN(C)CC3)c(C(F)(F)F)c2)cc1C#Cc1cnc2[nH]ncc2c1 [olverembatinib],Musculoskeletal pain,[1],1 (0.6) n (%)
same,Myocardial strain,[1],1 (0.6) n (%)
same,Neutropenia,[1],5 (3.0) n (%)
same,Nonhematologic,[1],48 (29.1) n (%)
same,Pain,[1],1 (0.6) n (%)
same,Pain in extremity,[1],1 (0.6) n (%)
same,Pericardial effusion,[1],1 (0.6) n (%)
same,Peripheral swelling,[1],1 (0.6) n (%)
same,Pneumonia,[1],2 (1.2) n (%)
same,Proteinuria,[1],1 (0.6) n (%)
same,Pulmonary arterial hypertension,[1],1 (0.6) n (%)
same,Pulmonary tuberculosis,[1],1 (0.6) n (%)
same,Pyrexia,[1],3 (1.8) n (%)
same,Rash,[1],1 (0.6) n (%)
same,Refraction disorder,[1],1 (0.6) n (%)
same,Sinus bradycardia,[1],1 (0.6) n (%)
same,Sinus tachycardia,[1],2 (1.2) n (%)
same,Skin mass,[1],1 (0.6) n (%)
same,Superior mesenteric artery syndrome,[1],1 (0.6) n (%)
same,Supraventricular extrasystoles,[1],1 (0.6) n (%)
same,Swelling,[1],1 (0.6) n (%)
same,Thrombocytopenia,[1],59 (35.8) n (%)
same,Upper-respiratory-tract infection,[1],2 (1.2) n (%)
same,Urinary sediment present,[1],1 (0.6) n (%)
same,Acute coronary syndrome,[2],0 n (%)
same,Anemia,[2],1 (2.6) n (%)
same,Arteriosclerosis coronary artery,[2],0 n (%)
same,Arthralgia,[2],1 (2.6) n (%)
same,Asthenia,[2],0 n (%)
same,Atrial fibrillation,[2],1 (2.6) n (%)
same,Cerebral infarction,[2],0 n (%)
same,Chest discomfort,[2],0 n (%)
same,Dyspnea,[2],0 n (%)
same,Electrocardiogram QT prolonged,[2],0 n (%)
same,Glaucoma,[2],0 n (%)
same,Hematologic adverse events,[2],10 (26.3) n (%)
same,Hyperbilirubinaemia,[2],1 (2.6) n (%)
same,Hyperglycaemia,[2],1 (2.6) n (%)
same,Hypertriglyceridaemia,[2],0 n (%)
same,Hypokalemia,[2],1 (2.6) n (%)
same,Increased creatine phosphokinase,[2],0 n (%)
same,Leukopenia,[2],2 (5.3) n (%)
same,Neutropenia,[2],1 (2.6) n (%)
same,Nonhaematologic,[2],5 (13.2) n (%)
same,Proteinuria,[2],0 n (%)
same,Retinal-vein occlusion,[2],0 n (%)
same,Seronegative arthritis,[2],1 (2.6) n (%)
same,Subileus,[2],0 n (%)
same,Thrombocytopenia,[2],7 (18.4) n (%)
same,Acute coronary syndrome,[3],1 (0.8) n (%)
same,Anemia,[3],2 (1.6) n (%)
same,Arteriosclerosis coronary artery,[3],1 (0.8) n (%)
same,Arthralgia,[3],0 n (%)
same,Asthenia,[3],1 (0.8) n (%)
same,Atrial fibrillation,[3],0 n (%)
same,Cerebral infarction,[3],1 (0.8) n (%)
same,Chest discomfort,[3],1 (0.8) n (%)
same,Dyspnea,[3],1 (0.8) n (%)
same,Electrocardiogram QT prolonged,[3],1 (0.8) n (%)
same,Glaucoma,[3],1 (0.8) n (%)
same,Hematologic adverse events,[3],20 (15.7) n (%)
same,Hyperbilirubinaemia,[3],1 (0.8) n (%)
same,Hyperglycaemia,[3],1 (0.8) n (%)
same,Hypertriglyceridaemia,[3],1 (0.8) n (%)
same,Hypokalemia,[3],0 n (%)
same,Increased creatine phosphokinase,[3],2 (1.6) n (%)
same,Leukopenia,[3],0 n (%)
same,Neutropenia,[3],2 (1.6) n (%)
same,Nonhaematologic,[3],16 (12.6) n (%)
same,Proteinuria,[3],1 (0.8) n (%)
same,Retinal-vein occlusion,[3],2 (1.6) n (%)
same,Seronegative arthritis,[3],0 n (%)
same,Subileus,[3],1 (0.8) n (%)
same,Thrombocytopenia,[3],19 (15) n (%)
same,Acute coronary syndrome,[4],1 (0.6) n (%)
same,Anemia,[4],3 (1.8) n (%)
same,Arteriosclerosis coronary artery,[4],1 (0.6) n (%)
same,Arthralgia,[4],1 (0.6) n (%)
same,Asthenia,[4],1 (0.6) n (%)
same,Atrial fibrillation,[4],1 (0.6) n (%)
same,Cerebral infarction,[4],1 (0.6) n (%)
same,Chest discomfort,[4],1 (0.6) n (%)
same,Dyspnea,[4],1 (0.6) n (%)
same,Electrocardiogram QT prolonged,[4],1 (0.6) n (%)
same,Glaucoma,[4],1 (0.6) n (%)
same,Hematologic adverse events,[4],30 (18.2) n (%)
same,Hyperbilirubinaemia,[4],2 (1.2) n (%)
same,Hyperglycaemia,[4],2 (1.2) n (%)
same,Hypertriglyceridaemia,[4],1 (0.6) n (%)
same,Hypokalemia,[4],1 (0.6) n (%)
same,Increased creatine phosphokinase,[4],2 (1.2) n (%)
same,Leukopenia,[4],2 (1.2) n (%)
same,Neutropenia,[4],3 (1.8) n (%)
same,Nonhaematologic,[4],21 (12.7) n (%)
same,Proteinuria,[4],1 (0.6) n (%)
same,Retinal-vein occlusion,[4],2 (1.2) n (%)
same,Seronegative arthritis,[4],1 (0.6) n (%)
same,Subileus,[4],1 (0.6) n (%)
same,Thrombocytopenia,[4],26 (15.8) n (%)
same,Acute myocardial infarction,[5],0 n (%)
same,Breast cancer,[5],0 n (%)
same,Febrile neutropenia,[5],0 n (%)
same,Hematologic,[5],3 (7.9) n (%)
same,Lacunar infarction,[5],0 n (%)
same,Nonhaematologic,[5],1 (2.6) n (%)
same,Pericardial effusion,[5],1 (2.6) n (%)
same,Proteinuria,[5],0 n (%)
same,Retinal-vein occlusion,[5],0 n (%)
same,Thrombocytopenia,[5],3 (7.9) n (%)
same,Acute myocardial infarction,[6],1 (0.8) n (%)
same,Breast cancer,[6],1 (0.8) n (%)
same,Febrile neutropenia,[6],1 (0.8) n (%)
same,Hematologic,[6],4 (3.1) n (%)
same,Lacunar infarction,[6],1 (0.8) n (%)
same,Nonhaematologic,[6],5 (3.9) n (%)
same,Pericardial effusion,[6],0 n (%)
same,Proteinuria,[6],1 (0.8) n (%)
same,Retinal-vein occlusion,[6],1 (0.8) n (%)
same,Thrombocytopenia,[6],3 (2.4) n (%)
same,Acute myocardial infarction,[7],1 (0.6) n (%)
same,Breast cancer,[7],1 (0.6) n (%)
same,Febrile neutropenia,[7],1 (0.6) n (%)
same,Hematologic,[7],7 (4.2) n (%)
same,Lacunar infarction,[7],1 (0.6) n (%)
same,Nonhaematologic,[7],6 (3.6) n (%)
same,Pericardial effusion,[7],1 (0.6) n (%)
same,Proteinuria,[7],1 (0.6) n (%)
same,Retinal-vein occlusion,[7],1 (0.6) n (%)
same,Thrombocytopenia,[7],6 (3.6) n (%)
same,Adverse events resulting in dose interruption,Accelerated phase n=38,28 (73.7%) n (%) and 28 (73.7) n (%)
same,Adverse events resulting in dose reduction,Accelerated phase n=38,14 (36.8%) n (%) and 14 (36.8) n (%)
same,Adverse events resulting in treatment discontinuation,Accelerated phase n=38,4 (10.5) n (%)
same,Atrial fibrillation,[8],3.0%
same,Palpitations,[8],1.2%
same,Pericardial effusion,[8],8.5%
same,Retinal-vein occlusion,[8],1.8%
same,Supraventricular extrasystoles,[8],3.0%
same,Ventricular extrasystoles,[8],4.2%
same,"angina pectoris, arrhythmia, atrial tachycardia, cardiomegaly, cerebral ischemia, and/or cerebral infarction",[8],< 1%
same,G3/4 cardiovascular events,[9],11.5%
same,median time on treatment to cardiovascular events (CVEs),[9],11 months
same,Adverse events resulting in dose interruption,Chronic phase n=127,58 (45.7%) n (%) and 58 (45.7) n (%)
same,Adverse events resulting in dose reduction,Chronic phase n=127,36 (28.3%) n (%) and 36 (28.3) n (%)
same,Adverse events resulting in treatment discontinuation,Chronic phase n=127,9 (7.1) n (%)
same,Treatment-related cardiovascular events,Accelerated phase n=38,4 (10.5) n (%)
same,Treatment-related cardiovascular events,Chronic phase n=127,15 (11.8) n (%)
same,Treatment-related cardiovascular events,Total n=165,19 (11.5) n (%)
